Data: patent US6590093B1, “Orthoester protecting groups” (Dharmacon, Inc., priority 1998, dated 2003)

Tests used:
[1] = buffer, pH 2
[2] = acid lability (half life) of the 2′-orthoester protecting group on uridine; conditions: pH 2, 25° C.; after ester hydrolysis of the ACE orthoester

half life [1]: < 45 s
times more labile (than 2′-ACE-uridine) [2]: 10 times
SMILES: O=c1ccn(C2OC(CO)C(O)C2OC(OCCO)OCCO)c(=O)[nH]1 (centres unmarked) [2′-modified uridine]
